In patent publication US20120034613A1, “Apparatus and Method for Testing Relationships Between Gene Expression and Physical Appearance of Skin” (NSE Products, Inc., priority 2010, published 2012):

Test system: EpidermFT™ Skin Model (EFT-400) full thickness skin cultures
Experiment: Affymetrix GeneChip HG U133 Plus 2.0 microarray global gene expression, agent-exposed vs untreated skin cultures
Assay type: cell-based, human
Conditions: 0.5% vs untreated, 24 hr; down

OCc1ccccc1O[C@@H]1O[C@H](CO)[C@@H](O)[C@H](O)[C@H]1O [Salicin, 2-(Hydroxymethyl)phenyl β-D-glucospyranoside]
Fold change ABHD12 (228124_at): 3.821 | Fold change ACAD8 (221669_s_at): 3.404 | Fold change ACOX1 (209600_s_at): 3.361 | Fold change ACOX1 (213501_at): 3.854 | Fold change ACOX1 (227962_at): 3.737 | Fold change ADAP2 (222876_s_at): 3.579 | Fold change AGPAT9 (224480_s_at): 3.106 | Fold change AHNAK2 (1558378_a_at): 3.138 | Fold change AKTIP (223894_s_at): 3.08 | Fold change ALDH3A2 (210544_s_at): 3.633 | Fold change ALDH3B2 (204941_s_at): 3.429 | Fold change ALOX15B (206714_at): 3.512 | Fold change ANKFN1 (1553211_at): 3.62 | Fold change ANKRD35 (231118_at): 3.392 | Fold change ANKRD57 (219496_at): 3.699 | Fold change APOBEC3B (206632_s_at): 3.0369 | Fold change AQP3 (39248_at): 3.579 | Fold change ARHGEF5 (204765_at): 3.689 | Fold change ARL4A (205020_s_at): 3.913 | Fold change ARL5A (218150_at): 3.293 | Fold change ARL5A (226617_at): 3.1 | Fold change ASPHD2 (227015_at): 3.321 | Fold change BCL11A (210347_s_at): 3.112 | Fold change BEND5 (219670_at): 3.381 | Fold change BEX2 (224367_at): 3.212 | Fold change BTBD16 (1552566_at): 3.232 | Fold change C1orf106 (219010_at): 3.744 | Fold change C1orf161 (1553333_at): 3.474 | Fold change C2orf54 (220149_at): 3.333 | Fold change C4orf32 (227856_at): 3.328 | Fold change C10orf57 /// C10orf58 (224435_at): 3.829 | Fold change C10orf99 (227735_s_at): 3.719 | Fold change C19orf33 (223631_s_at): 3.241 | Fold change C20orf74 (232500_at): 3.366 | Fold change CA2 (209301_at): 3.433 | Fold change CAMK1D (235626_at): 3.726 | Fold change CARD10 (210026_s_at): 3.475 | Fold change CCNB1 (228729_at): 3.349 | Fold change CD9 (201005_at): 3.444 | Fold change CDH3 (203256_at): 3.506 | Fold change CDKN2B (236313_at): 3.737 | Fold change CDS1 (226187_at): 3.08 | Fold change CGN (223232_s_at): 3.873 | Fold change CHAC2 (235117_at): 3.55 | Fold change CHD7 (218829_s_at): 3.089 | Fold change CLDN4 (201428_at): 3.454 | Fold change CLTB (205172_x_at): 3.663 | Fold change CLTB (211043_s_at): 3.446 | Fold change COBLL1 (215393_s_at): 3.301 | Fold change COL17A1 (204636_at): 3.576 | Fold change CPEB3 (205773_at): 3.876 | Fold change CTA-221G9.4 /// LOC100131004 (225525_at): 3.401 | Fold change CYP2R1 (227109_at): 3.716 | Fold change CYP27C1 (1568868_at): 3.64 | Fold change D4S234E (209569_x_at): 3.313 | Fold change D4S234E (209570_s_at): 3.871 | Fold change DAAM1 (216060_s_at): 3.84 | Fold change DAAM1 (226666_at): 3.519 | Fold change DAPL1 (229290_at): 3.089 | Fold change DGAT2 (224327_s_at): 3.427 | Fold change DGAT2 (226064_s_at): 3.883 | Fold change DHRS1 (213279_at): 3.907 | Fold change DHRS11 (218756_s_at): 3.13 | Fold change DLX3 (231778_at): 3.089 | Fold change DOCK8 (225502_at): 3.608 | Fold change DUOX1 (219597_s_at): 3.516 | Fold change DUOXA1 (1554648_a_at): 3.865 | Fold change EBP (213787_s_at): 3.0355 | Fold change EFNA5 (214036_at): 3.139 | Fold change EGR1 (201693_s_at): 3.681 | Fold change EGR2 (205249_at): 3.497 | Fold change ELOVL6 (204256_at): 3.121 | Fold change ELOVL6 (210868_s_at): 3.441 | Fold change ENC1 (201340_s_at): 3.246 | Fold change EPB41L4A (228256_s_at): 3.298 | Fold change EPHA4 (229374_at): 3.101 | Fold change EPN3 (223895_s_at): 3.929 | Fold change F3 (204363_at): 3.192 | Fold change F11R (222354_at): 3.541 | Fold change FA2H (219429_at): 3.37 | Fold change FABP7 (205029_s_at): 3.263 | Fold change FABP7 (205030_at): 3.804 | Fold change FAM63A (221856_s_at): 3.1 | Fold change FAM72A /// FAM72B /// GCUD2 (225834_at): 3.211 | Fold change FAM83B (1563900_at): 3.497 | Fold change FAM83D (225687_at): 3.895 | Fold change FAM83H (226129_at): 3.739 | Fold change FAM84B (225864_at): 3.566 | Fold change FAM169A (235048_at): 3.759 | Fold change FBXO3 (218432_at): 3.446 | Fold change FCHSD1 (226698_at): 3.141 | Fold change FERMT1 (218796_at): 3.784 | Fold change FGFBP1 (205014_at): 3.406 | Fold change FIGN (239710_at): 3.472 | Fold change FLNB (208614_s_at): 3.765 | Fold change FLVCR2 (219316_s_at): 3.532 | Fold change FLVCR2 (222866_s_at): 3.373 | Fold change FMO5 (205776_at): 3.223 | Fold change FOXE1 (206912_at): 3.121 | Fold change FXYD3 (202489_s_at): 3.827 | Fold change GAB1 (229114_at): 3.301 | Fold change GFOD1 (219821_s_at): 3.679 | Fold change GGT6 (236225_at): 3.426 | Fold change GJB6 (231771_at): 3.289 | Fold change GM2A (35820_at): 3.763 | Fold change GM2A (212737_at): 3.6714 | Fold change GM2A (235678_at): 3.427 | Fold change GPR37 (209631_s_at): 3.265 | Fold change GPR126 (213094_at): 3.256 | Fold change GPT2 (224839_s_at): 3.555 | Fold change GRHL1 (222830_at): 3.044 | Fold change GSTA4 (235405_at): 3.3 | Fold change H19 (224646_x_at): 3.532
